This is an account of results in patent publication US10364245B2 (CHIESI FARMACEUTICI S.p.A., priority 2017, dated 2019).

Structures can show the parent of a compound that is named as a salt.

In this assay the target is T1, p38 alpha (Homo sapiens, UniProt Q16539).
T1 construct: purchased Invitrogen PV3304
T1 sequence (Q16539 whole entry): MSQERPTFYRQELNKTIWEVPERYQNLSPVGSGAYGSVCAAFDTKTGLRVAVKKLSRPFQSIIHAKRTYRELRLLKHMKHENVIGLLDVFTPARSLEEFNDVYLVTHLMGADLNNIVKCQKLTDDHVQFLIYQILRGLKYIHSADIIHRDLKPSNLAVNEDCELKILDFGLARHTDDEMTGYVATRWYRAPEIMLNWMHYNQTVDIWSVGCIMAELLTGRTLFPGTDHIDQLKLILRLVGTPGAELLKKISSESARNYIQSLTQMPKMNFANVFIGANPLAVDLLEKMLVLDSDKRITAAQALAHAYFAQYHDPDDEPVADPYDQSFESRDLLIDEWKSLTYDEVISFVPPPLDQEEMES
Nature of the assay: P38 alpha enzyme inhibition assay (Alphascreen kinase activity assay). Format: biochemical. The note with it: 100 pM p38 alpha, 2 hours preincubation at 25° C., 250 μM ATP, ATF-2 fusion protein; read-out: p38α inhibition. The method, then: P38 Alpha Enzyme Inhibition Assay
The inhibitory activity of compounds was determined using an Alphascreen® (Perkin Elmer) based kinase activity assay. Kinase reactions consisted of 25 mM HEPES pH 7.5, 10 mM MgCl2, 100 μM Na3VO4, 2 mM DTT, 0.05 mg/ml Tween 20, 100 pM p38 alpha (Invitrogen, PV3304), 1% DMSO and 0.3 μg/ml ATF-2 fusion protein (New England Biolabs, 9224). Compounds were incubated under these conditions for 2 hours, at 25° C., prior to the initiation of the kinase activity by the addition of the 250 μM ATP. Reaction volumes were 20 μL. After 1 hr at 25° C. reactions were stopped by the adding 10 μL of 25 mM HEPES pH 7.5 containing 62.5 mM EDTA, 0.05% Triton X-100, 10% BSA and 0.83 ng/uL anti-phospho-ATF2 antibody (Abcam, ab28812). Detection was performed by measuring luminescence following the addition of Alphascreen Donor beads (Perkin Elmer 6765300) and Protein A Alphascreen Acceptor beads (Perkin Elmer 6760137), both at a final concentration of 20 ug/ml. IC50 values were determined from concentration-response curves.
A general note: In Alpha technology, singlet oxygen from a donor bead excites a nearby acceptor bead.
For the molecule `CC(C)c1nnc2ccc(O[C@@H]3CC[C@H](NC(=O)Nc4cc(C(C)(C)C)nc(C(=O)NCCN(C)C)n4)c4ccccc43)cn12` [Example 17, 4-(tert-Butyl)-N-(2-(dimethylamino)ethyl)-6-(3-((1S,4R)-4-((3-isopropyl-[1,2,4]triazolo[4,3-a]pyridin-6-yl)oxy)-1,2,3,4-tetrahydronaphthalen-1-yl)ureido)pyrimidine-2-carboxamide], the IC50 lay within 1 to 10 nM.
As to `CN(C)CCNC(=O)c1nc(NC(=O)N[C@H]2CC[C@@H](Oc3ccc4nnc(C(C)(C)N5CCN(C)CC5)n4c3)c3ccccc32)cc(C(C)(C)C)n1` [Example 22, 4-(tert-Butyl)-N-(2-(dimethylamino)ethyl)-6-(3-((1S,4R)-4-((3-(2-(4-methylpiperazin-1-yl)propan-2-yl)-[1,2,4]triazolo[4,3-a]pyridin-6-yl)oxy)-1,2,3,4-tetrahydronaphthalen-1-yl)ureido)pyrimidine-2-carboxamide], the IC50 was 1 to 10 nM.
For the molecule `CCc1nc(NC(=O)N[C@H]2CC[C@@H](Oc3ccc4nnc([C@]5(C)CCCN5C)n4c3)c3ccccc32)cc(C(C)(C)C)n1` [Example 41, 1-(6-(tert-Butyl)-2-ethylpyrimidin-4-yl)-3-((1S,4R)-4-((3-((S)-1,2-dimethylpyrrolidin-2-yl)-[1,2,4]triazolo[4,3-a]pyridin-6-yl)oxy)-1,2,3,4-tetrahydronaphthalen-1-yl)urea], the IC50 was in the range of 1 to 10 nM.
For `CC(C)c1nc(NC(=O)N[C@H]2CC[C@@H](Oc3ccc4nnc([C@]5(C)CCCN5C)n4c3)c3ccccc32)cc(C(C)(C)C)n1` [Example 42, 1-(6-(tert-Butyl)-2-isopropylpyrimidin-4-yl)-3-((1S,4R)-4-((3-((S)-1,2-dimethylpyrrolidin-2-yl)-[1,2,4]triazolo[4,3-a]pyridin-6-yl)oxy)-1,2,3,4-tetrahydronaphthalen-1-yl)urea], the IC50 lay in the range of 1 to 10 nM.
Turning to `CSc1nc(NC(=O)N[C@H]2CC[C@@H](Oc3ccc4nnc([C@@H]5CCCN5C)n4c3)c3ccccc32)cc(C(C)(C)C)n1` [Example 48], the IC50 is 1 to 10 nM.
For the molecule `CC(C)(C)c1cc(NC(=O)N[C@H]2CC[C@@H](Oc3ccc4nnc(C(C)(C)C)n4c3)c3ccccc32)nc(COCCN2CCOCC2)n1` [Example 63, 1-(6-(tert-Butyl)-2-((2-morpholinoethoxy)methyl)pyrimidin-4-yl)-3-((1S,4R)-4-((3-(tert-butyl)-[1,2,4]triazolo[4,3-a]pyridin-6-yl)oxy)-1,2,3,4-tetrahydronaphthalen-1-yl)urea], the IC50 is 1 to 10 nM.
Turning to `CN(C)CCNC(=O)c1nc(NC(=O)N[C@H]2CC[C@@H](Oc3ccc4nnc(C(=O)N5CCOCC5)n4c3)c3ccccc32)cc(C(C)(C)C)n1` [Example 71, 4-(tert-butyl)-N-(2-(dimethylamino)ethyl)-6-(3-((1S,4R)-4-((3-(morpholine-4-carbonyl)-[1,2,4]triazolo[4,3-a]pyridin-6-yl)oxy)-1,2,3,4-tetrahydronaphthalen-1-yl)ureido)pyrimidine-2-carboxamide], the IC50 lay within 1 to 10 nM.
On to `CC(C)(C)c1cc(NC(=O)N[C@H]2CC[C@@H](Oc3ccc4nnc(C(C)(C)C)n4c3)c3ccccc32)nc(C(=O)N2CC(F)(F)C2)n1` [Example 79, 1-(6-(tert-butyl)-2-(3,3-difluoroazetidine-1-carbonyl)pyrimidin-4-yl)-3-((1S,4R)-4-((3-(tert-butyl)-[1,2,4]triazolo[4,3-a]pyridin-6-yl)oxy)-1,2,3,4-tetrahydronaphthalen-1-yl)urea], for which the IC50 lay within 1 to 10 nM.
The value for `CC(C)Cc1nnc2ccc(O[C@@H]3CC[C@H](NC(=O)Nc4cc(C(C)(C)C)nc(C(=O)NCCN5CCOCC5)n4)c4ccccc43)cn12` [Example 90, 4-(tert-butyl)-6-(3-((1S,4R)-4-((3-isobutyl-[1,2,4]triazolo[4,3-a]pyridin-6-yl)oxy)-1,2,3,4-tetrahydronaphthalen-1-yl)ureido)-N-(2-morpholinoethyl)-pyrimidine-2-carboxamide] was 1 to 10 nM.
Consider `CC(C)(C)c1cc(NC(=O)N[C@H]2CC[C@@H](Oc3ccc4nnc(C5(C)COC5)n4c3)c3ccccc32)nc(C(=O)NCCN2CCOCC2)n1` [Example 98, 4-(tert-butyl)-6-(3-((1S,4R)-4-((3-(3-methyloxetan-3-yl)-[1,2,4]triazolo[4,3-a]pyridin-6-yl)oxy)-1,2,3,4-tetrahydronaphthalen-1-yl)ureido)-N-(2-morpholinoethyl)-pyrimidine-2-carboxamide], for which the IC50 lay in the range of 1 to 10 nM.
As to `CO[C@@H](C)c1nnc2ccc(O[C@@H]3CC[C@H](NC(=O)Nc4cc(C(C)(C)C)nc(C(=O)NCCN5CCOCC5)n4)c4ccccc43)cn12` [Example 101, 4-(tert-butyl)-6-(3-((1S,4R)-4-((3-((S)-1-methoxyethyl)-[1,2,4]triazolo[4,3-a]pyridin-6-yl)oxy)-1,2,3,4-tetrahydronaphthalen-1-yl)ureido)-N-(2-morpholinoethyl)-pyrimidine-2-carboxamide], the IC50 was 1 to 10 nM.
The value for `COCCN(C)CCNC(=O)c1nc(NC(=O)N[C@H]2CC[C@@H](Oc3ccc4nnc([C@H](C)OC)n4c3)c3ccccc32)cc(C(C)(C)C)n1` [Example 106, 4-(tert-butyl)-N-(2-((2-methoxyethyl)(methyl)amino)ethyl)-6-(3-((1S,4R)-4-((3-((S)-1-methoxyethyl)-[1,2,4]triazolo[4,3-a]pyridin-6-yl)oxy)-1,2,3,4-tetrahydronaphthalen-1-yl)ureido)pyrimidine-2-carboxamide] was 1 to 10 nM; that for `CN(C)CCN(C)C(=O)c1nc(NC(=O)N[C@H]2CC[C@@H](Oc3ccc4nnc(C(C)(C)C)n4c3)c3ccccc32)cc(C(C)(C)C)n1` [Example 115, 4-(tert-butyl)-6-(3-((1S,4R)-4-((3-(tert-butyl)-[1,2,4]triazolo[4,3-a]pyridin-6-yl)oxy)-1,2,3,4-tetrahydronaphthalen-1-yl)ureido)-N-(2-(dimethylamino)ethyl)-N-methylpyrimidine-2-carboxamide] was 1 to 10 nM.
Take `CC(C)(C)c1cc(NC(=O)N[C@H]2CC[C@@H](Oc3ccc4nnc(C(C)(C)C)n4c3)c3ccccc32)nc(C(=O)N2CCN(CCO)CC2)n1` [Example 116, 1-(6-(tert-butyl)-2-(4-(2-hydroxyethyl)piperazine-1-carbonyl)pyrimidin-4-yl)-3-((1S,4R)-4-((3-(tert-butyl)-[1,2,4]triazolo[4,3-a]pyridin-6-yl)oxy)-1,2,3,4-tetrahydronaphthalen-1-yl)urea]: the IC50 was 1 to 10 nM.
With `CN1CCCN(C(=O)c2nc(NC(=O)N[C@H]3CC[C@@H](Oc4ccc5nnc(C(C)(C)C)n5c4)c4ccccc43)cc(C(C)(C)C)n2)CC1` [Example 133, 1-(6-(tert-butyl)-2-(4-methyl-1,4-diazepane-1-carbonyl)pyrimidin-4-yl)-3-((1S,4R)-4-((3-(tert-butyl)-[1,2,4]triazolo[4,3-a]pyridin-6-yl)oxy)-1,2,3,4-tetrahydronaphthalen-1-yl)urea], the IC50 was 1 to 10 nM.
Under `CN1CCN(Cc2nc(NC(=O)N[C@H]3CC[C@@H](Oc4ccc5nnc(C(C)(C)C)n5c4)c4ccccc43)cc(C(C)(C)C)n2)C(=O)C1` [Example 135, 1-(6-(tert-Butyl)-2-((4-methyl-2-oxopiperazin-1-yl)methyl)pyrimidin-4-yl)-3-((1S,4R)-4-((3-(tert-butyl)-[1,2,4]triazolo[4,3-a]pyridin-6-yl)oxy)-1,2,3,4-tetrahydronaphthalen-1-yl)urea formate salt] stands 1 to 10 nM; under `COC(C)(C)c1nnc2ccc(O[C@@H]3CC[C@H](NC(=O)Nc4cc(C(C)(C)C)nc(C(=O)NCC(C)(C)N(C)C)n4)c4ccccc43)cn12` [Example 141, 4-(tert-butyl)-N-(2-(dimethylamino)-2-mcthylpropyl)-6-(3-((1S,4R)-4-((3-(2-methoxypropan-2-yl)-[1,2,4]triazolo[4,3-a]pyridin-6-yl)oxy)-1,2,3,4-tetrahydronaphthalen-1-yl)ureido)pyrimidine-2-carboxamide], 1 to 10 nM; under `COC(C)(C)c1nnc2ccc(O[C@@H]3CC[C@H](NC(=O)Nc4cc(C(C)(C)C)nc(COCCN5CCOCC5)n4)c4ccccc43)cn12` [Example 144, 1-(6-(tert-butyl)-2-((2-morpholinoethoxy)-methyl)pyrimidin-4-yl)-3-((1S,4R)-4-((3-(2-methoxypropan-2-yl)-[1,2,4]triazolo[4,3-a]pyridin-6-yl)oxy)-1,2,3,4-tetrahydronaphthalen-1-yl)urea], 1 to 10 nM.
On to `CCC(CC)(CNC(=O)c1nc(NC(=O)N[C@H]2CC[C@@H](Oc3ccc4nnc(C(C)(C)COC)n4c3)c3ccccc32)cc(C(C)(C)C)n1)N(C)C` [Example 147, 4-(tert-butyl)-N-(2-(dimethylamino)-2-ethylbutyl)-6-(3-((1S,4R)-4-((3-(1-methoxy-2-methylpropan-2-yl)-[1,2,4]triazolo[4,3-a]pyridin-6-yl)oxy)-1,2,3,4-tetrahydronaphthalen-1-yl)ureido)pyrimidine-2-carboxamide], for which the IC50 was 1 to 10 nM.
The value for `CCN(C)C(C)(C)CNC(=O)c1nc(NC(=O)N[C@H]2CC[C@@H](Oc3ccc4nnc(C(C)(C)C)n4c3)c3ccccc32)cc(C(C)(C)C)n1` [Example 148, 4-(tert-butyl)-6-(3-((1S,4R)-4-((3-(tert-butyl)-[1,2,4]triazolo[4,3-a]pyridin-6-yl)oxy)-1,2,3,4-tetrahydronaphthalen-1-yl)ureido)-N-(2-(ethyl(methyl)amino)-2-methylpropyl)pyrimidine-2-carboxamide] was 1 to 10 nM.
